Source: patent publication US20060069132A1, “Azolecarboxamide herbicides” (priority 2004, published 2006)

Assays:
[1] = system: large crabgrass; test: Test A pre-/postemergence herbicide test; type: in vivo, Digitaria sanguinalis
How it was run: (§1)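 Sandy loam soil given preemergence directed spray; plants at 2 to 10 cm, one- to two-leaf stage, sprayed to runoff postemergence, compounds in non-phytotoxic solvent with surfactant. Injury rated visually versus untreated controls after about ten greenhouse days, 0 (no effect) to 100 (complete control); dash means not tested.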

[2] = system: cocklebur; test: Test B pre-/postemergence herbicide test; type: in vivo, Xanthium strumarium
How it was run: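 Test chemicals in a non-phytotoxic solvent mixture with surfactant were applied preemergence to seeded species and postemergence to plants 2-18 cm tall (1- to 4-leaf stage); rice and barnyardgrass were also tested in a flooded paddy at the 2-leaf stage. Visual rating versus controls after 13-15 days in greenhouse, scale 0 (no effect) to 100 (complete control).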

[3] = system: giant foxtail; test: Test A pre-/postemergence herbicide test; type: in vivo, Setaria faberi
How it was run: as §1

[4] = system: johnsongrass; test: Test C pre-/postemergence herbicide test; type: in vivo, Sorghum halepense
How it was run: (§2)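 Preemergence: seeds planted and treated with compound in non-phytotoxic solvent with surfactant; postemergence: plants at 2 to 18 cm (1- to 4-leaf stage) sprayed likewise. Kept in greenhouse 12 to 14 days, then visually rated against controls, 0 (no effect) to 100 (complete control).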

[5] = system: lambsquarters; test: Test B pre-/postemergence herbicide test; type: in vivo, Chenopodium album
How it was run: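 Herbicidal effect was judged by eye on a 0–100 scale after plants stood 13 to 15 days in the greenhouse following pre- or postemergence treatment with surfactant-containing formulations.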

[6] = system: pigweed; test: Test C pre-/postemergence herbicide test; type: in vivo, Amaranthus retroflexus
How it was run: as §2

[7] = system: lambsquarters; test: Test C pre-/postemergence herbicide test; type: in vivo, Chenopodium album
How it was run: as §2

[8] = system: woolly cupgrass; test: Test C pre-/postemergence herbicide test; type: in vivo, Eriochloa villosa
How it was run: as §2

[9] = system: Surinam grass; test: Test C pre-/postemergence herbicide test; type: in vivo, Urochloa decumbens
How it was run: as §2

[10] = Postemergence, 500 g ai/ha, 0 to 100 scale, 0 no effect, 100 complete control
[11] = Postemergence, 2000 g ai/ha, 0 to 100 scale, 0 no effect, 100 complete control
[12] = Preemergence, 2000 g ai/ha, visual rating, 0 to 100 scale (0 no effect, 100 complete control)
[13] = preemergence, 500 g ai/ha, visual injury, 0 to 100 scale (0 no effect, 100 complete control)
[14] = 125 g ai/ha; 0 = no effect, 100 = complete control; preemergence
[15] = 125 g ai/ha; visual rating, scale 0 (no effect) to 100 (complete control); postemergence
[16] = 500 g ai/ha; visual rating, 0 = no effect, 100 = complete control; preemergence
[17] = postemergence, 500 g ai/ha; scale 0 to 100, 0 is no effect, 100 is complete control
[18] = 62 g ai/ha, preemergence, scale 0 to 100
[19] = 125 g ai/ha, scale 0 (no effect) to 100 (complete control), visual, 12 to 14 days, preemergence
[20] = 250 g ai/ha, scale 0-100, preemergence
[21] = 500 g ai/ha, scale 0 to 100 (0 no effect, 100 complete control), visual, 12 to 14 days, preemergence
[22] = Preemergence, 500 g ai/ha, visual rating, 0 to 100 scale (0 no effect, 100 complete control)
[23] = Preemergence, 2000 g ai/ha, 0 to 100 scale, 0 no effect, 100 complete control
[24] = Postemergence, 500 g ai/ha; visual rating after 13 to 15 days, scale 0 (no effect) to 100 (complete control)
[25] = postemergence, 125 g ai/ha; visual rating, scale 0 (no effect) to 100 (complete control)
[26] = preemergence, 125 g ai/ha; 0 to 100 scale, 0 is no effect, 100 is complete control
[27] = Postemergence, 500 g ai/ha, scale 0 to 100
[28] = Postemergence, 250 g ai/ha, scale 0 to 100, 0 no effect, 100 complete control
[29] = postemergence, 125 g ai/ha, scale 0 to 100
[30] = postemergence, 62 g ai/ha, scale 0 to 100
[31] = 500 g ai/ha; visual rating 0-100, 0 no effect, 100 complete control; preemergence
[32] = Preemergence, 500 g ai/ha, scale 0 to 100, 0 no effect, 100 complete control
[33] = 250 g ai/ha, scale 0 to 100 (0 no effect, 100 complete control), visual, 12 to 14 days, preemergence
[34] = postemergence, 500 g ai/ha; visual rating, scale 0 (no effect) to 100 (complete control)

CCn1nc(C(C)(C)C)cc1C(=O)Nc1cncc(C(=O)N(C)C)n1 [Compound 287]
Crabgrass, Large plant response rating [1, 10]: 10
Plant response rating, Crabgrass, Large [1, 11]: 60
Crabgrass, Large plant response rating [1, 12]: 100
Crabgrass, Large plant response rating [1, 13]: 75
Cocklebur plant response rating (0 to 100 scale) [2, 14]: 0
Cocklebur plant response rating [2, 15]: 10
Plant response rating, Cocklebur [2, 16]: 60
Cocklebur plant response rating [2, 17]: 10
Foxtail, Giant plant response rating [3, 10]: 40
Plant response rating, Foxtail, Giant [3, 11]: 90
Foxtail, Giant plant response rating [3, 12]: 100
Foxtail, Giant plant response rating [3, 13]: 65
Plant response rating, Johnsongrass [4, 18]: 55
Plant response rating, Johnsongrass [4, 19]: 85
Plant response rating, Johnsongrass [4, 20]: 95
Plant response rating, Johnsongrass [4, 21]: 95
Lambsquarters plant response rating (0 to 100 scale) [5, 14]: 100
Lambsquarters plant response rating [5, 15]: 10
Plant response rating, Lambsquarters [5, 16]: 100
Lambsquarters plant response rating [5, 17]: 20
Plant response rating, Pigweed [6, 18]: 100
Plant response rating, Pigweed [6, 19]: 100
Plant response rating, Pigweed [6, 20]: 100
Plant response rating, Pigweed [6, 21]: 100
Plant response rating, Lambsquarters [7, 18]: 100
Plant response rating, Lambsquarters [7, 19]: 100
Plant response rating, Lambsquarters [7, 20]: 100
Plant response rating, Lambsquarters [7, 21]: 100
Plant response rating, Cupgrass, Woolly [8, 18]: 0
Plant response rating, Cupgrass, Woolly [8, 19]: 0
Plant response rating, Cupgrass, Woolly [8, 20]: 10
Plant response rating, Cupgrass, Woolly [8, 21]: 35
Plant response rating, Surinam Grass [9, 20]: 65
Plant response rating, Surinam Grass [9, 21]: 95

C#CCOC(=O)c1cccc(NC(=O)c2cc(C(C)(C)C)nn2CC)c1 [Compound 84]
Crabgrass, Large plant response rating [1, 10]: 20
Plant response rating, Crabgrass, Large [1, 11]: 20
Crabgrass, Large plant response rating [1, 22]: 0
Crabgrass, Large plant response rating [1, 23]: 0
Plant response rating, Cocklebur [2, 24]: 100
Cocklebur plant response rating [2, 25]: 20
Plant response rating, Cocklebur [2, 26]: 0
Foxtail, Giant plant response rating [3, 10]: 15
Plant response rating, Foxtail, Giant [3, 11]: 10
Foxtail, Giant plant response rating [3, 22]: 0
Foxtail, Giant plant response rating [3, 23]: 0
Johnsongrass plant response rating [4, 27]: 0
Plant response rating, Johnsongrass [4, 28]: 0
Plant response rating, Johnsongrass [4, 29]: 0
Plant response rating, Johnsongrass [4, 30]: 0
Plant response rating, Lambsquarters [5, 24]: 60
Lambsquarters plant response rating [5, 25]: 0
Plant response rating, Lambsquarters [5, 26]: 0
Pigweed plant response rating [6, 27]: 100
Plant response rating, Pigweed [6, 28]: 100
Plant response rating, Pigweed [6, 29]: 100
Plant response rating, Pigweed [6, 30]: 100
Lambsquarters plant response rating [7, 27]: 50
Plant response rating, Lambsquarters [7, 28]: 0
Plant response rating, Lambsquarters [7, 29]: 0
Plant response rating, Lambsquarters [7, 30]: 0
Cupgrass, Woolly plant response rating [8, 27]: 0
Plant response rating, Cupgrass, Woolly [8, 28]: 0
Plant response rating, Cupgrass, Woolly [8, 29]: 0
Plant response rating, Cupgrass, Woolly [8, 30]: 0
Surinam Grass plant response rating [9, 27]: 10
Plant response rating, Surinam Grass [9, 28]: 0
Plant response rating, Surinam Grass [9, 29]: 0
Plant response rating, Surinam Grass [9, 30]: 0

CCn1nc(C(C)(C)C)cc1C(=O)Nc1cccc(C(C)=NO)c1 [Compound 108]
Crabgrass, Large plant response rating [1, 10]: 65
Plant response rating, Crabgrass, Large [1, 11]: 85
Crabgrass, Large plant response rating [1, 22]: 85
Crabgrass, Large plant response rating [1, 12]: 100
Plant response rating, Cocklebur [2, 31]: 30
Plant response rating, Cocklebur [2, 24]: 90
Cocklebur plant response rating [2, 25]: 70
Plant response rating, Cocklebur [2, 26]: 10
Foxtail, Giant plant response rating [3, 10]: 90
Plant response rating, Foxtail, Giant [3, 11]: 100
Foxtail, Giant plant response rating [3, 22]: 95
Foxtail, Giant plant response rating [3, 12]: 100
Plant response rating (0 = no effect, 100 = complete control), Johnsongrass ([4]; 62 g ai/ha, preemergence): 60
Plant response rating, Johnsongrass [4, 19]: 100
Johnsongrass plant response rating [4, 27]: 90
Plant response rating, Johnsongrass [4, 28]: 70
Johnsongrass plant response rating [4, 32]: 100
Plant response rating, Johnsongrass [4, 29]: 50
Plant response rating, Johnsongrass [4, 30]: 20
Plant response rating, Lambsquarters [5, 31]: 100
Plant response rating, Lambsquarters [5, 24]: 100
Lambsquarters plant response rating [5, 25]: 90
Plant response rating, Lambsquarters [5, 26]: 100
Plant response rating (0 = no effect, 100 = complete control), Pigweed ([6]; 62 g ai/ha, preemergence): 100
Plant response rating, Pigweed [6, 19]: 100
Pigweed plant response rating [6, 27]: 100
Plant response rating, Pigweed [6, 28]: 100
Pigweed plant response rating [6, 32]: 100
Plant response rating, Pigweed [6, 29]: 100
Plant response rating, Pigweed [6, 30]: 60
Plant response rating (0 = no effect, 100 = complete control), Lambsquarters ([7]; 62 g ai/ha, preemergence): 100
Plant response rating, Lambsquarters [7, 19]: 100
Lambsquarters plant response rating [7, 27]: 100
Plant response rating, Lambsquarters [7, 28]: 100
Lambsquarters plant response rating [7, 32]: 100
Plant response rating, Lambsquarters [7, 29]: 100
Plant response rating, Lambsquarters [7, 30]: 70
Plant response rating (0 = no effect, 100 = complete control), Cupgrass, Woolly ([8]; 62 g ai/ha, preemergence): 30
Plant response rating, Cupgrass, Woolly [8, 19]: 50
Plant response rating, Cupgrass, Woolly [8, 33]: 50
Cupgrass, Woolly plant response rating [8, 27]: 40
Plant response rating, Cupgrass, Woolly [8, 28]: 40
Cupgrass, Woolly plant response rating [8, 32]: 80
Plant response rating, Cupgrass, Woolly [8, 29]: 40
Plant response rating, Cupgrass, Woolly [8, 30]: 20
Plant response rating (0 = no effect, 100 = complete control), Surinam Grass ([9]; 62 g ai/ha, preemergence): 30
Plant response rating, Surinam Grass [9, 19]: 40
Surinam Grass plant response rating [9, 27]: 50
Plant response rating, Surinam Grass [9, 28]: 40
Surinam Grass plant response rating [9, 32]: 90
Plant response rating, Surinam Grass [9, 29]: 40
Plant response rating, Surinam Grass [9, 30]: 20

CCN(CC)C(=O)c1cccc(NC(=O)c2cc(C(C)(C)C)nn2CC)n1 [Compound 145]
Crabgrass, Large plant response rating [1, 10]: 30
Plant response rating, Crabgrass, Large [1, 11]: 85
Crabgrass, Large plant response rating [1, 22]: 70
Crabgrass, Large plant response rating [1, 12]: 90
Plant response rating, Cocklebur [2, 31]: 20
Cocklebur plant response rating [2, 25]: 0
Cocklebur plant response rating [2, 34]: 30
Plant response rating, Cocklebur [2, 26]: 0
Foxtail, Giant plant response rating [3, 10]: 40
Plant response rating, Foxtail, Giant [3, 11]: 60
Foxtail, Giant plant response rating [3, 22]: 85
Foxtail, Giant plant response rating [3, 12]: 100
Plant response rating (0 = no effect, 100 = complete control), Johnsongrass ([4]; 62 g ai/ha, preemergence): 50
Plant response rating, Johnsongrass [4, 19]: 65
Johnsongrass plant response rating [4, 32]: 90
Plant response rating, Lambsquarters [5, 31]: 100
Lambsquarters plant response rating [5, 25]: 60
Lambsquarters plant response rating [5, 34]: 70
Plant response rating, Lambsquarters [5, 26]: 80
Plant response rating (0 = no effect, 100 = complete control), Pigweed ([6]; 62 g ai/ha, preemergence): 85
Plant response rating, Pigweed [6, 19]: 90
Pigweed plant response rating [6, 32]: 95
Plant response rating (0 = no effect, 100 = complete control), Lambsquarters ([7]; 62 g ai/ha, preemergence): 20
Plant response rating, Lambsquarters [7, 19]: 60
Lambsquarters plant response rating [7, 32]: 100
Plant response rating (0 = no effect, 100 = complete control), Cupgrass, Woolly ([8]; 62 g ai/ha, preemergence): 0
Plant response rating, Cupgrass, Woolly [8, 19]: 0
Plant response rating, Cupgrass, Woolly [8, 33]: 0
Cupgrass, Woolly plant response rating [8, 32]: 40
Plant response rating (0 = no effect, 100 = complete control), Surinam Grass ([9]; 62 g ai/ha, preemergence): 0
Plant response rating, Surinam Grass [9, 19]: 50
Surinam Grass plant response rating [9, 32]: 70
